Data: the NIST ThermoML archive (doi:10.1021/acs.jced.6b00688)

Test: xn = mol fraction of the nth substance listed
Settings: 100 kPa, Liquid; for viscosity: Falling or rolling sphere viscometry; for mass density: Vibrating tube method

CCCCCCCO [heptan-1-ol] + CCCCCCCCCCCC
Settings | mass density [kg/m3] | viscosity [mPa·s]
293.15 K, x2 = 0.0998 | 810.76 | 5.346
293.15 K, x2 = 0.2005 | 800.65 | 4.224
293.15 K, x2 = 0.302 | 791.28 | 3.358
293.15 K, x2 = 0.3991 | 783.4 | 2.778
293.15 K, x2 = 0.4989 | 776.02 | 2.363
293.15 K, x2 = 0.5994 | 769.4 | 2.052
293.15 K, x2 = 0.6975 | 763.54 | 1.835
293.15 K, x2 = 0.7959 | 758.2 | 1.677
293.15 K, x2 = 0.8984 | 753.19 | 1.538
298.15 K, x2 = 0.0998 | 807.24 | 4.555
298.15 K, x2 = 0.2005 | 797.07 | 3.626
298.15 K, x2 = 0.302 | 787.66 | 2.917
298.15 K, x2 = 0.3991 | 779.77 | 2.444
298.15 K, x2 = 0.4989 | 772.37 | 2.098
298.15 K, x2 = 0.5994 | 765.74 | 1.837
298.15 K, x2 = 0.6975 | 759.88 | 1.653
298.15 K, x2 = 0.7959 | 754.54 | 1.516
298.15 K, x2 = 0.8984 | 749.53 | 1.397
303.15 K, x2 = 0.0998 | 803.68 | 3.91
303.15 K, x2 = 0.2005 | 793.46 | 3.144
303.15 K, x2 = 0.302 | 784.02 | 2.559
303.15 K, x2 = 0.3991 | 776.11 | 2.168
303.15 K, x2 = 0.4989 | 768.69 | 1.878
303.15 K, x2 = 0.5994 | 762.06 | 1.655
303.15 K, x2 = 0.6975 | 756.19 | 1.498
303.15 K, x2 = 0.7959 | 750.85 | 1.38
303.15 K, x2 = 0.8984 | 745.85 | 1.276
308.15 K, x2 = 0.0998 | 800.09 | 3.381
308.15 K, x2 = 0.2005 | 789.82 | 2.745
308.15 K, x2 = 0.302 | 780.35 | 2.26
308.15 K, x2 = 0.3991 | 772.42 | 1.935
308.15 K, x2 = 0.4989 | 765 | 1.69
308.15 K, x2 = 0.5994 | 758.35 | 1.5
308.15 K, x2 = 0.6975 | 752.48 | 1.364
308.15 K, x2 = 0.7959 | 747.14 | 1.262
308.15 K, x2 = 0.8984 | 742.15 | 1.172
313.15 K, x2 = 0.0998 | 796.48 | 2.94
313.15 K, x2 = 0.2005 | 786.16 | 2.412
313.15 K, x2 = 0.302 | 776.66 | 2.009
313.15 K, x2 = 0.3991 | 768.72 | 1.736
313.15 K, x2 = 0.4989 | 761.28 | 1.528
313.15 K, x2 = 0.5994 | 754.63 | 1.365
313.15 K, x2 = 0.6975 | 748.76 | 1.247
313.15 K, x2 = 0.7959 | 743.42 | 1.158
313.15 K, x2 = 0.8984 | 738.43 | 1.08
318.15 K, x2 = 0.0998 | 792.81 | 2.573
318.15 K, x2 = 0.2005 | 782.46 | 2.134
318.15 K, x2 = 0.302 | 772.94 | 1.795
318.15 K, x2 = 0.3991 | 764.98 | 1.566
318.15 K, x2 = 0.4989 | 757.54 | 1.388
318.15 K, x2 = 0.5994 | 750.88 | 1.247
318.15 K, x2 = 0.6975 | 745.01 | 1.145
318.15 K, x2 = 0.7959 | 739.67 | 1.066
318.15 K, x2 = 0.8984 | 734.71 | 0.999
323.15 K, x2 = 0.0998 | 789.12 | 2.266
323.15 K, x2 = 0.2005 | 778.74 | 1.896
323.15 K, x2 = 0.302 | 769.19 | 1.612
323.15 K, x2 = 0.3991 | 761.22 | 1.417
323.15 K, x2 = 0.4989 | 753.77 | 1.265
323.15 K, x2 = 0.5994 | 747.11 | 1.143
323.15 K, x2 = 0.6975 | 741.23 | 1.054
323.15 K, x2 = 0.7959 | 735.9 | 0.986
323.15 K, x2 = 0.8984 | 730.96 | 0.928
328.15 K, x2 = 0.0998 | 785.39 | 2.006
328.15 K, x2 = 0.2005 | 774.97 | 1.694
328.15 K, x2 = 0.302 | 765.4 | 1.454
328.15 K, x2 = 0.3991 | 757.43 | 1.288
328.15 K, x2 = 0.4989 | 749.97 | 1.158
328.15 K, x2 = 0.5994 | 743.31 | 1.051
328.15 K, x2 = 0.6975 | 737.44 | 0.974
328.15 K, x2 = 0.7959 | 732.12 | 0.915
328.15 K, x2 = 0.8984 | 727.21 | 0.864
333.15 K, x2 = 0.0998 | 781.62 | 1.785
333.15 K, x2 = 0.2005 | 771.18 | 1.522
333.15 K, x2 = 0.302 | 761.59 | 1.317
333.15 K, x2 = 0.3991 | 753.6 | 1.175
333.15 K, x2 = 0.4989 | 746.14 | 1.063
333.15 K, x2 = 0.5994 | 739.49 | 0.97
333.15 K, x2 = 0.6975 | 733.61 | 0.902
333.15 K, x2 = 0.7959 | 728.31 | 0.851
333.15 K, x2 = 0.8984 | 723.43 | 0.807
